Measurements from US9024017B2, “Octahydro-cyclopentapyrrolyl antagonists of CCR2” (Janssen Pharmaceutica NV, priority 2012, dated 2015).

Target: T1, CCR2 (Homo sapiens, UniProt P41597)
T1 construct: host or cells: THP-1 (human monocytic cell line)
Assay: MCP-1 Receptor Binding Assay in THP-1 Cells
Conditions: read-out: MCP1B_v3 IC50
Method: Compounds of the invention were subjected to various representative biological tests. […] MCP-1 Receptor Binding Assay in THP-1 Cells Human monocytic cell line THP-1 cells were obtained from American Type Culture Collection (Manassas, Va., USA). The THP-1 cells were grown in RPMI-1640 (RPMI: Roswell Park Memorial Institute Medium-cell culture growth media) supplemented with 10% fetal bovine serum in a humidified 5% CO2 atmosphere at 37° C. The cell density was maintained between […].
THP-1 (cells were incubated with 0.5 nM ^125I labeled MCP-1 (Perkin-Elmer Life Sciences, Inc. Boston, Mass.) in the presence of varying concentrations of either unlabeled MCP-1 (R & D Systems, Minneapolis, Minn.) or test compound for 2 hours at 30° C. in a 96 well plate. Cells were then harvested onto a filter plate, dried, and 20 μL of Microscint 20 was added to each well. Plates were counted in a TopCount NXT, Microplate Scintillation & Luminescence Counter (Perkin-Elmer Life Sciences, Inc. Boston, Mass.). Blank values (buffer only) were subtracted from all values and drug treated values were compared to vehicle treated values. 1 μM cold MCP-1 was used for nonspecific binding.

T1 sequence (P41597 whole entry): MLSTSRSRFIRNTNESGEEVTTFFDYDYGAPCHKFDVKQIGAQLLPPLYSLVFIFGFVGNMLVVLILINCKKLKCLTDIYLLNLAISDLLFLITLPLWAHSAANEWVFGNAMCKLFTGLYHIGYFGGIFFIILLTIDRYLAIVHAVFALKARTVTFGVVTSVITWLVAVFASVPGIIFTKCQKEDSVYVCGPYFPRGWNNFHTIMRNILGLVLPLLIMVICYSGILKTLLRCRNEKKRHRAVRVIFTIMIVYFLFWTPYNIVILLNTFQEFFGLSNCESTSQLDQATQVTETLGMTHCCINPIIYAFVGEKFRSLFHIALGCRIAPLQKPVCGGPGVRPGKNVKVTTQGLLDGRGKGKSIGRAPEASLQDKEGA

Row | Structure (SMILES) | IC50 [nM]
1 | COC1COCCC1N[C@@H]1C[C@H]2CN(C(=S)NCc3ccccc3)C[C@@]2(C(=O)N2CCc3ncc(C(F)(F)F)cc3C2)C1 (relative stereo) [Example 26, (3aR,5R,6aR)-N-Benzyl-5-(((3S*,4S*)-3-methoxytetrahydro-2H-pyran-4-yl)amino)-3a-(3-(trifluoromethyl)-5,6,7,8-tetrahydro-1,6-naphthyridine-6-carbonyl)hexahydrocyclopenta-[c]pyrrole-2(1H)-carbothioamide] | 200
2 | CNC(=S)N1C[C@@H]2C[C@@H](NC3CCOCC3OC)C[C@]2(C(=O)N2CCc3ncc(C(F)(F)F)cc3C2)C1 (relative stereo) [Example 27, (3aR,5R,6aR)-5-(((3S*,4S*)-3-Methoxytetrahydro-2H-pyran-4-yl)amino)-N-methyl-3a-(3-(trifluoromethyl)-5,6,7,8-tetrahydro-1,6-naphthyridine-6-carbonyl)hexahydrocyclopenta[c]pyrrole-2(1H)-carbothioamide] | 30
3 | CNC(=S)N1C[C@@H]2C[C@@H](N(C(=S)NC)C3CCOCC3OC)C[C@]2(C(=O)N2CCc3ncc(C(F)(F)F)cc3C2)C1 (relative stereo) [Example 28, (3aR,5R,6aR)-5-(1-((3S*,4S*)-3-Methoxytetrahydro-2H-pyran-4-yl)-3-methylthioureido)-N-methyl-3a-(3-(trifluoromethyl)-5,6,7,8-tetrahydro-1,6-naphthyridine-6-carbonyl)hexahydrocyclopenta[c]pyrrole-2(1H)-carbothioamide] | 250
4 | COC1COCCC1N[C@@H]1C[C@H]2CN(C(=S)NCC(C)C)C[C@@]2(C(=O)N2CCc3ncc(C(F)(F)F)cc3C2)C1 (relative stereo) [Example 29, (3aR,5R,6aR)-N-Isobutyl-5-(((3S*,4S*)-3-methoxytetrahydro-2H-pyran-4-yl)amino)-3a-(3-(trifluoromethyl)-5,6,7,8-tetrahydro-1,6-naphthyridine-6-carbonyl)hexahydrocyclopenta[c]pyrrole-2(1H)-carbothioamide] | 30
5 | COC1COCCC1N(C(=S)NCC(C)C)[C@@H]1C[C@H]2CN(C(=S)NCC(C)C)C[C@@]2(C(=O)N2CCc3ncc(C(F)(F)F)cc3C2)C1 (relative stereo) [Example 30, (3aR,5R,6aR)-N-Isobutyl-5-((3S*,4S*)-3-isobutyl-1-(3-methoxytetrahydro-2H-pyran-4-yl)thioureido)-3a-(3-(trifluoromethyl)-5,6,7,8-tetrahydro-1,6-naphthyridine-6-carbonyl)hexahydrocyclopenta[c]pyrrole-2(1H)-carbothioamide] | 90
6 | COC1COCCC1N[C@@H]1C[C@H]2CN(C(=S)n3ccnc3)C[C@@]2(C(=O)N2CCc3ncc(C(F)(F)F)cc3C2)C1 (relative stereo) [Example 31, ((3aR,5R,6aR)-2-(1H-Imidazole-1-carbonothioyl)-5-(((3S*,4S*)-3-methoxytetrahydro-2H-pyran-4-yl)amino)octahydrocyclopenta[c]pyrrol-3a-yl)(3-(trifluoromethyl)-7,8-dihydro-1,6-naphthyridin-6(5H)-yl)methanone] | 80
7 | COC1COCCC1N[C@@H]1C[C@H]2CN(S(N)(=O)=O)C[C@@]2(C(=O)N2CCc3ncc(C(F)(F)F)cc3C2)C1 (relative stereo) [Example 32, (3aR,5R,6aR)-5-(((3S*,4S*)-3-Methoxytetrahydro-2H-pyran-4-yl)amino)-3a-(3-(trifluoromethyl)-5,6,7,8-tetrahydro-1,6-naphthyridine-6-carbonyl)hexahydrocyclopenta-[c]pyrrole-2(1H)-sulfonamide] | 130
8 | COC1COCCC1N[C@@H]1C[C@H]2CN(S(=O)(=O)NCc3ccccc3)C[C@@]2(C(=O)N2CCc3ncc(C(F)(F)F)cc3C2)C1 (relative stereo) [Example 33, (3aR,5R,6aR)-N-Benzyl-5-(((3S*,4S*)-3-methoxytetrahydro-2H-pyran-4-yl)amino)-3a-(3-(trifluoromethyl)-5,6,7,8-tetrahydro-1,6-naphthyridine-6-carbonyl)hexahydrocyclopenta[c]pyrrole-2(1H)-sulfonamide] | 410
